Assay results from the COVID Moonshot data (paper PMC11187573), “Identification of SARS-CoV-2 Mpro inhibitors through deep reinforcement learning for de novo drug design and computational chemistry approaches” (RSC Medicinal Chemistry, 2024).

Molecular target: SARS-CoV-2 Main Protease (SARS-CoV-2) (UniProt P0DTD1)

Structure (SMILES) | IC50 [µM] | inhibition (50.0 µM) [%] | inhibition (20.0 µM) [%]
O=C(Nc1cncc2ccccc12)C1COc2ccc(Cl)cc21 (centres undefined) | 0.509 | 77 | –
COc1ccc2c(N)nn(C(=O)C3CCOc4ccc(Cl)cc43)c2c1 (centres undefined) | 62.1 | – | –
Cc1ccncc1NC(=O)Cc1cc(Cl)cc(CNS(C)(=O)=O)c1 | 32.2 | – | –
Nc1nn(C(=O)C2CCOc3ccc(Cl)cc32)c2ccncc12 (centres undefined) | 95.2 | – | –
CC(C)CCN1C(=O)C(=O)c2cc(Br)ccc21 | 24.3 | – | –
Cc1ccncc1NC(=O)Cc1cc(Cl)cc(NC2CCCC2O)c1 (centres undefined) | 38.9 | 61.5 | –
CNC(=O)Nc1ccc(N(Cc2ccsc2)C(=O)Cn2nnc3ccccc32)cc1 | 15.3 | – | –
O=C(c1cc(=O)[nH]c2ccccc12)N1CCN(c2cccc(Cl)c2)C(=O)C1 | 9.61 | – | –
CC(=O)O[C@@H]1OC2OC(=O)[C@H](C)C3=C([C@@]4(C)CCCC(C)(C)C4)CCC1C32 (stereo in doubt) | – | 0 | –
CNc1ccc(N(C(=O)Cn2nnc3ccccc32)c2cccc(Cl)c2)cc1 | 10.6 | – | –
Cc1cc(C(F)(F)F)nc2n[nH]c(NC(=O)Cc3cccc(Cl)c3)c12 | 82 | – | –
O=C(Cc1cccc(Cl)c1)Nc1cnccc1C1CC1 | 7.4 | – | –
Cc1ccncc1N1CCC(c2cccc(Cl)c2)C1=O (centres undefined) | 12.9 | – | –
O=C(Nc1ccccc1)[C@@H](c1ccccc1)N1Cc2ccccc2C1=O (stereo in doubt) | 99.8 | – | –
O=C(Cn1nnc2ccccc21)N(Cc1ccsc1)c1ccc(N2CCOCC2)cc1 | 21.3 | – | –
OC[C@H]1O[C@H]([S][Au])[C@H](O)[C@@H](O)[C@@H]1O (stereo in doubt) | – | 83.1 | –
O=C(Cn1nnc2ccccc21)N(Cc1cccc(Cl)c1)c1ccc(N2CCCCC2)cc1 | 6.02 | – | –
O=C(Cc1cccc(Cl)c1)Nc1cnccc1-c1ccccc1 | 25.1 | – | –
CN(C)c1ccc(N(Cc2cscn2)C(=O)Cn2nnc3ccccc32)cc1 | 14.3 | – | –
O=C(Cc1cccc(Cl)c1)Nn1nnc2ccccc21 | 31 | – | –
Cc1ccncc1NC(=O)Cc1cc(Cl)cc(OCc2nnc(C3CCCCC3)o2)c1 | 13.3 | 100 | –

Structure (SMILES) | IC50 [µM] | inhibition (50.0 µM) [%] | inhibition (20.0 µM) [%]
COc1ccc(N(Cc2cccc(Cl)c2)C(=O)Cn2nnc3ccccc32)cc1 | 5.65 | – | –
O=C(Nc1cncc2ccccc12)C1COc2c(Cl)cccc21 (centres undefined) | 5.36 | – | –
O=C(Nc1ccc(Cl)cc1)[C@@H](c1ccccc1)N1Cc2ccccc2C1=O (stereo in doubt) | 65 | – | –
Nc1nn(C(=O)C2CCOc3ccc(Cl)cc32)c2cc(F)ccc12 (centres undefined) | 53.3 | – | –
C[C@H]1C[C@@H](C(=O)Nc2cncc3ccccc23)c2cc(Cl)ccc2O1 (stereo in doubt) | 45.4 | – | –
CC(C)(C)c1ccc(N(C(=O)c2cn[nH]c2)C(C(=O)NCCc2cccc(F)c2)c2cccnc2)cc1 (centres undefined) | 4.84 | 100 | –
O=C(Cc1cc(Cl)cc(CC2CC(=O)N2)c1)Nc1cncc2ccccc12 (centres undefined) | 4.42 | – | –
CC(C)(C)N1C=CN(C(C)(C)C)[CH]1[Au][Cl] | 0.117 | 100 | –
COc1cc(COc2cc(Cl)cc(CC(=O)Nc3cnccc3C)c2)ccc1OC(F)F | 7.39 | – | –
CCC(=O)Nc1ccc(N(Cc2ccccc2)C(=O)Nn2nnc3ccccc32)cc1 | 3.73 | – | –
O=c1ccc2c3ccc(=O)c4c(O)ccc(c5ccc(O)c1c52)c43 | – | 42.5 | –
C=CC(=O)N(c1cc(C(C)(C)C)on1)C(C(=O)NCCc1cccc(F)c1)c1cncc(C#N)c1 (centres undefined) | 10.6 | – | –
Cc1noc(COc2cc(Cl)cc(CC(=O)Nc3cnccc3C)c2)n1 | 24.3 | – | –
Cc1cc(C(=O)CCl)c(C)n1NC(=O)c1n[nH]c(=O)c2ccccc12 | – | 42.3 | –
Cc1ccn2cnnc2c1NC(=O)Cc1cccc(Cl)c1 | 83.4 | – | –
C[C@H]1O[C@H](C)C2Oc3cc(O)c4c(=O)c5c6c7c8c(cc(=O)c9c(O)c1c2c(c3c47)c98)O[C@@H]6[C@@H](C)O[C@@H]5C (stereo in doubt) | – | 0 | –
Cc1ccncc1NC(=O)Cc1cc(Cl)cc(OCCN2CCOCC2C)c1 (centres undefined) | – | 23.9 | –
Cc1ccncc1NC(=O)Cc1cc(Cl)cc(OCc2cc(-c3ccc(Cl)cc3)no2)c1 | 48.8 | 41.8 | –
N#CC(C(=O)Nc1ccccc1)C(=O)c1cccs1 (centres undefined) | – | 0 | –
O=C(Cc1cccc(Cl)c1)Nc1cncc2nc[nH]c12 | 7.97 | 79.5 | –
Cc1ccc(N(Cc2cscn2)C(=O)Cc2cncc3ccccc23)cc1 | 13.6 | – | –

Structure (SMILES) | IC50 [µM] | inhibition (50.0 µM) [%] | inhibition (20.0 µM) [%]
COC(=O)C(C(=O)Nc1cnccc1C)c1cccc(Cl)c1 (centres undefined) | 17.1 | – | –
O=C(NCC1=[SH]C=CC1)[C@@H](c1ccccc1)N1Cc2ccccc2C1=O (stereo in doubt) | 82 | – | –
COc1ccc2c(=O)cc(-c3cc(OCc4ccccc4)ccc3OC)oc2c1 | – | 1.98 | –
O=C(Nc1cncc2ccccc12)[C@@H]1COc2ccc(Cl)cc2C1 (stereo in doubt) | 3.56 | – | –
Cc1cc(O)c2c(c1)C1(O)CC(C2=O)C2=C1C(=O)c1c(O)cccc1C2=O (centres undefined) | 58.2 | 81.1 | –
O=C(NC[C@@]1(COc2ccc(C(F)(F)F)cn2)C[C@@H](O)[C@@H](O)C1)Nc1cccnc1 | – | 0 | –
Cc1cc(C(F)(F)F)nc2n[nH]c(NC(=O)C3CCOc4ccc(Cl)cc43)c12 (centres undefined) | 98.1 | – | –
O=C(Cc1cncc2ccccc12)Nc1cc(Cl)cc(OC2CCC(=O)N2)c1 (centres undefined) | 19.4 | – | –
CCC(=O)Nc1ccc(N(Cc2cscn2)C(=O)Cn2nnc3ccccc32)cc1 | 46.1 | – | –
Cc1cc(C(=O)CCl)c(C)n1CC1COc2ccccc2O1 (centres undefined) | 4.15 | 82.2 | –
O=C(Cc1cncc2ccccc12)N(CCC1CCCCC1)c1cccc(Cl)c1 | 1.02 | – | –
CC(=O)Nc1cccc(N2CCCC2=O)c1 | – | 22.7 | 11.4
Cc1ccncc1NC(=O)Cc1cc(Cl)cc(OCc2n[nH]c3ccccc23)c1 | – | 9.6 | –
Cc1ccncc1NC(=O)Cc1cc(Cl)cc(NC2(C)CCC(F)(F)CC2)c1 | 45.5 | – | –
Nc1nn(C(=O)Cc2cccc(Cl)c2)c2ccc(F)cc12 | 94.2 | – | –
O=C(Cc1cc(Cl)cc(Cc2ccn[nH]2)c1)Nc1cncc2ccccc12 | 9.39 | – | –
O=C(Cc1cccc(Cl)c1)Nc1cncc2c1CCCN2 | 4.04 | – | –
O=C1OC(c2cccs2)=N/C1=C\c1ccc(N2CCOCC2)s1 | 0.706 | 91.7 | –
O=c1c(O)c(-c2cc(OCc3ccccc3)ccc2OCc2ccccc2)oc2ccccc12 | – | 0.254 | –
Nc1nn(C(=O)Cc2cccc(Cl)c2)c2cccc(F)c12 | 52.6 | – | –
Cc1ccc(NC2=C(c3ccccc3)C(=O)N(Cc3cccnc3)C2=O)cc1Cl | 32.2 | – | –
